Results taken from PubChem BioAssay AID1199 (EPA DSSTox, 2008).
Activity calls are given as the source filed them.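 The calls were made as follows: active = a tumour-causing dose and a tumour site recorded for mice in at least one sex group; inconclusive = only government mouse studies exist and were judged inadequate; inactive = mouse studies exist but none gave tumours.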

Each compound was assayed on mouse carcinogenicity bioassay, TD50 from CPDB (assay: DSSTox (CPDBAS) Carcinogenic Potency Database Summary Mouse Bioassay Results). Conditions: not given.
How it was run: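 Chronic long-term mouse cancer bioassays from literature and NCI/NTP, compiled per sex. TD50 is the standardized carcinogenic potency, using the most positive experiment per sex-species; target sites follow author opinion.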

Row | SMILES | Potency
1 | Cc1cc(O)c(C)c2c1OC(C)(CCCC(C)CCCC(C)CCCC(C)C)CC2 (stereo unspecified) | 8.66 mmol/kg/day

Same assay, conditions: TD50_Mouse_Note: TD50_Mouse_mmol was not calculated for this mixture, but Activiity Score is assigned value of 50 to indicate active

Row | SMILES | outcome
2 | COc1cc2c(c3oc(=O)c4c(c13)CCOC4=O)C1C=COC1O2 (stereo unspecified) | active; hematopoietic system
3 | Clc1cccc(-c2ccc(Cl)c(Cl)c2Cl)c1Cl | active; liver

Same assay, conditions: TD50_Mouse_Note: TD50 is harmonic mean of more than one positive test; TD50_Mouse_mmol was not calculated for this mixture, but Activiity; TargetSites_Mouse_Female: liver; thyroid gland

Row | SMILES | outcome
4 | CCC(Cl)CCC(Cl)C(Cl)CC(Cl)C(Cl)C(Cl)CCl (stereo unspecified) | active; liver

Same assay, conditions: TD50_Mouse_Note: TD50 is harmonic mean of more than one positive test; TargetSites_Mouse_BothSexes: liver

Row | SMILES | Potency
5 | ClC1=C(Cl)[C@]2(Cl)[C@@H]3[C@H]4C=CC(C4)[C@@H]3C1(Cl)C2(Cl)Cl | 0.00348 mmol/kg/day

Same assay, conditions: TD50_Mouse_Note: TD50 is harmonic mean of more than one positive test; TargetSites_Mouse_Female: adrenal gland; liver

Row | SMILES | Potency
6 | ClCC(Cl)Cl | 0.412 mmol/kg/day

Same assay, conditions: TD50_Mouse_Note: TD50 is harmonic mean of more than one positive test; TargetSites_Mouse_Female: harderian gland; lung; subcutaneous tissue

Row | SMILES | Potency
7 | OCC(CO)(CBr)CBr | 0.523 mmol/kg/day

Same assay, conditions: TD50_Mouse_Note: TD50 is harmonic mean of more than one positive test; TargetSites_Mouse_Female: harderian gland; stomach

Row | SMILES | Potency
8 | C=CC#N | 0.119 mmol/kg/day

Same assay, conditions: TD50_Mouse_Note: TD50 is harmonic mean of more than one positive test; TargetSites_Mouse_Female: hematopoietic system; stomach

Row | SMILES | Potency
9 | Nc1nc(/C=C/c2ccc([N+](=O)[O-])o2)no1 | 0.504 mmol/kg/day

Same assay, conditions: TD50_Mouse_Note: TD50 is harmonic mean of more than one positive test; TargetSites_Mouse_Female: liver

Row | SMILES | Potency
10 | Nc1ccc(-c2ccc(F)cc2)cc1 | 0.00609 mmol/kg/day
11 | CCn1nc(C)c2c1C(c1ccccc1)=NCC(=O)N2 | 0.425 mmol/kg/day
12 | Clc1ccc(Cl)cc1 | 2.2 mmol/kg/day
13 | Cc1ccc(C)c(N)c1 | 3.97 mmol/kg/day
14 | CN(C)c1ccc(C(=O)c2ccc(N(C)C)cc2)cc1 | 0.313 mmol/kg/day
15 | C=CC(O)c1ccc2c(c1)OCO2 (stereo unspecified) | 0.4 mmol/kg/day
16 | Cc1ncc[nH]1 | 9.52 mmol/kg/day

Same assay, conditions: TD50_Mouse_Note: TD50 is harmonic mean of more than one positive test; TargetSites_Mouse_Female: liver; lung

Row | SMILES | Potency
17 | Cc1cc(C)c(N)cc1C | 0.265 mmol/kg/day
18 | O=c1ccc2ccccc2o1 | 0.705 mmol/kg/day

Same assay, conditions: TD50_Mouse_Note: TD50 is harmonic mean of more than one positive test; TargetSites_Mouse_Female: liver; vascular system

Row | SMILES | Potency
19 | O=C1c2ccccc2CN2C(=O)c3ccccc3CN12 | 3.27 mmol/kg/day

Same assay, conditions: TD50_Mouse_Note: TD50 is harmonic mean of more than one positive test; TargetSites_Mouse_Female: lung

Row | SMILES | Potency
20 | N#[N+]c1ccccc1 | 0.0712 mmol/kg/day

Same assay, conditions: TD50_Mouse_Note: TD50 is harmonic mean of more than one positive test; TargetSites_Mouse_Female: lung; nervous system

Row | SMILES | Potency
21 | CN(C)N=O | 0.00255 mmol/kg/day

Same assay, conditions: TD50_Mouse_Note: TD50 is harmonic mean of more than one positive test; TargetSites_Mouse_Female: lung; vascular system

Row | SMILES | Potency
22 | C=CCNN | 0.315 mmol/kg/day

Same assay, conditions: TD50_Mouse_Note: TD50 is harmonic mean of more than one positive test; TargetSites_Mouse_Female: nasal cavity

Row | SMILES | Potency
23 | CC1CO1 (stereo unspecified) | 15.7 mmol/kg/day

Same assay, conditions: TD50_Mouse_Note: TD50 is harmonic mean of more than one positive test; TargetSites_Mouse_Female: stomach

Row | SMILES | Potency
24 | ClCc1cccnc1 | 1.4 mmol/kg/day
25 | O=C1CCO1 | 0.0172 mmol/kg/day
26 | Oc1ccc2c(c1)OCO2 | 32.5 mmol/kg/day
27 | CCCCOCCO | 14.5 mmol/kg/day

Same assay, conditions: TD50_Mouse_Note: TD50 is harmonic mean of more than one positive test; TargetSites_Mouse_Female: vascular system

Row | SMILES | Potency
28 | NNc1ccccc1 | 0.493 mmol/kg/day

Same assay, conditions: TD50_Mouse_Note: TD50 is harmonic mean of more than one positive test; greater than ten-fold variation among TD50 values for positive res; TargetSites_Mouse_Female: liver

Row | SMILES | Potency
29 | Oc1ccc(O)cc1 | 2.04 mmol/kg/day

Same assay, conditions: TD50_Mouse_Note: TD50 is harmonic mean of more than one positive test; harmonic mean of TD50 includes a value for upper 99% confidence li; TargetSites_Mouse_Female: liver

Row | SMILES | Potency
30 | CC(N)=S | 0.117 mmol/kg/day

Same assay, conditions: TD50_Mouse_Note: no positive results

Row | SMILES | outcome
31 | C=CC(OC(C)=O)c1ccc2c(c1)OCO2 (stereo unspecified) | inactive; no positive results

Same assay, conditions: TD50_Mouse_Note: no positive results are statistically significant; TD50_Mouse_mmol was not calculated for this mixture, but Activiity Sc; TargetSites_Mouse_Female: pituitary gland

Row | SMILES | outcome
32 | C#C[C@]1(OC(C)=O)CC[C@H]2[C@@H]3CCC4=CC(=O)CC[C@@H]4[C@H]3CC[C@@]21C | active

Same assay, conditions: TD50_Mouse_Note: no positive results; TargetSites_Mouse_Female: no positive results

Row | SMILES | outcome
33 | CC(/C=C/C=C(\C)C(=O)O[C@@H]1O[C@H](CO[C@@H]2O[C@H](CO)[C@@H](O)[C@H](O)[C@H]2O)[C@@H](O)[C@H](O)[C@H]1O)=C\C=C\C=C(C)\C=C\C=C(/C)C(=O)O[C@@H]1O[C@H](CO[C@@H]2O[C@H](CO)[C@@H](O)[C@H](O)[C@H]2O)[C@@H](O)[C@H](O)[C@H]1O | inactive; no positive results
34 | OC[C@@H](O)[C@H]1O[C@@H]2O[C@H](C(Cl)(Cl)Cl)O[C@@H]2[C@H]1O | inactive; no positive results
35 | Clc1ccccc1Cl | inactive; no positive results
36 | CN(C)C(=O)Nc1ccc(Cl)c(Cl)c1 | inactive; no positive results
37 | CCNc1nc(Cl)nc(NCC)n1 | inactive; no positive results
38 | O=S1(=O)OCCO1 | inactive
39 | CCCOC(=O)c1cc(O)c(O)c(O)c1 | inactive; no positive results
40 | Oc1cccc2cccnc12.Oc1cccc2cccnc12.[Cu] | inactive; no positive results
41 | C[C@]12C=CC(=O)C=C1CC[C@@H]1[C@@H]2C(=O)C[C@@]2(C)[C@H]1CC[C@]2(O)C(=O)CO | inactive; no positive results
42 | CCNC(=S)NCC | inactive; no positive results
43 | O=S(O)S(=O)(=O)O | inactive; no positive results
44 | OC[C@H]1O[C@H](O[C@]2(CCl)O[C@H](CCl)[C@@H](O)[C@@H]2O)[C@H](O)[C@@H](O)[C@H]1Cl | inactive; no positive results
45 | CCCCOC(=O)c1ccccc1C(=O)OCc1ccccc1 | inactive; no positive results
46 | CC(=O)OC/C=C(\C)CCC=C(C)C | inactive; no positive results
47 | CNC(=O)Oc1cc(C)c(N(C)C)c(C)c1 | inactive; no positive results
48 | CC(=O)c1ccc(S(=O)(=O)NC(=O)NC2CCCCC2)cc1 | inactive; no positive results
49 | O=C(O)c1[nH]n(-c2ccc(S(=O)(=O)O)cc2)c(=O)c1N=Nc1ccc(S(=O)(=O)O)cc1 | inactive; no positive results
50 | OCCO | inactive; no positive results
51 | C=CCCl | inactive; no positive results
52 | BrC(Br)Br | inactive; no positive results
53 | Nc1ccc(N)cc1 | inactive; no positive results
54 | O=[N+]([O-])c1cccc2ccccc12 | inactive; no positive results
55 | Nc1ccc2ccccc2c1S(=O)(=O)O | inactive; no positive results
56 | C=C(C)C | inactive; no positive results
57 | COc1ccc(CCN2CCC(Nc3nc4ccccc4n3Cc3ccc(F)cc3)CC2)cc1 | inactive; no positive results
58 | CCCCN(CCCC)C(=S)[S-].CCCCN(CCCC)C(=S)[S-].[Ni+2] | inactive; no positive results
59 | CCN(CC)C(=S)[S-].CCN(CC)C(=S)[S-].[Cd+2] | inactive; no positive results

Row | SMILES | outcome
60 | CC(C)C=O | inactive; no positive results
61 | Nc1ccc(Nc2ccccc2)cc1 | inactive; no positive results
62 | CC(Cc1ccccc1)NN (stereo unspecified) | inactive; no positive results
63 | CC(C)O | inactive; no positive results
64 | CC(Oc1cc(Cl)ccc1Cl)C(=O)O (stereo unspecified) | inactive; no positive results
65 | C=Cc1ccc(C)cc1 | inactive; no positive results
66 | CC1=C(C(=O)OC(C)C)C(c2cccc([N+](=O)[O-])c2)C(C(=O)OC2CN(C(c3ccccc3)c3ccccc3)C2)=C(N)N1 (stereo unspecified) | inactive; no positive results
67 | Nc1ccc(O)c([N+](=O)[O-])c1 | inactive; no positive results
68 | O=C(O)Cc1c[nH]c2ccccc12 | inactive; no positive results
69 | CC(Cl)(Cl)Cl | inactive; no positive results
70 | O=C(O)Cc1cccc2ccccc12 | inactive; no positive results
71 | COc1cc(/C=C/C(=O)CC(=O)/C=C/c2ccc(O)c(OC)c2)ccc1O | inactive; no positive results
72 | NC(=O)c1ccccc1C(N)=O | inactive; no positive results
73 | [O-][Cl+]O | inactive; no positive results
74 | c1ccc2sc(SSc3nc4ccccc4s3)nc2c1 | inactive; no positive results
75 | Nc1ccc(Cl)cc1 | inactive; no positive results
76 | C[C@H](CCC(=O)O)[C@H]1CC[C@H]2[C@@H]3CC[C@@H]4C[C@H](O)CC[C@]4(C)[C@H]3CC[C@]12C | inactive; no positive results
77 | C=CCOC(=O)c1ccccc1C(=O)OCC=C | inactive; no positive results
78 | Cc1c(N)cccc1N | inactive; no positive results
79 | O=P(O)(O)O | inactive; no positive results
80 | OCl | inactive; no positive results
81 | CC(Oc1ccc(Cl)cc1Cl)C(=O)O (stereo unspecified) | inactive; no positive results
82 | O=C(O)c1cccnc1 | inactive; no positive results
83 | NNc1ccccc1 | inactive
84 | O=S(=O)(O)c1ccc(N=Nc2cc(S(=O)(=O)O)c3ccccc3c2O)c2ccccc12 | inactive; no positive results
85 | Cc1cccc(C)c1NC(=O)CN1CCCC1=O | inactive; no positive results
86 | CC1(C)S[C@@H]2[C@H](NC(=O)COc3ccccc3)C(=O)N2[C@H]1C(=O)O | inactive; no positive results

Same assay, conditions: TD50_Mouse_Note: positive test results only by intraperitoneal or intravenous injection; TargetSites_Mouse_Female: hematopoietic system

Row | SMILES | Potency
87 | CC1=C[C@H]2[C@@]3(O)[C@H](C)[C@@H](O)[C@]4(O)[C@H]([C@@H]3C=C(CO)C[C@]2(O)C1=O)C4(C)C | 0.00606 mmol/kg/day

Same assay, conditions: TargetSites_Mouse_BothSexes: liver; mammary gland

Row | SMILES | Potency
88 | Nc1ccc(N=Nc2ccc(-c3ccc(N=Nc4c(S(=O)(=O)O)cc5cc(S(=O)(=O)O)c(N=Nc6ccccc6)c(O)c5c4N)cc3)cc2)c(N)c1 | 0.0916 mmol/kg/day

Same assay, conditions: TargetSites_Mouse_BothSexes: no positive results

Row | SMILES | outcome
89 | CCCCCCC(=O)/C=C/CCCCCCCCC(=O)OC | inactive

Same assay, conditions: TargetSites_Mouse_Female: liver

Row | SMILES | Potency
90 | CCCCC(CC)COP(=O)(OCC(CC)CCCC)OCC(CC)CCCC (stereo unspecified) | 5.89 mmol/kg/day
91 | Cc1cc(C)c(N)cc1C | 0.0453 mmol/kg/day

Same assay, conditions: TargetSites_Mouse_Female: lung; vascular system

Row | SMILES | Potency
92 | NNCCc1ccccc1 | 0.0623 mmol/kg/day
93 | CCCCCNN | 0.0423 mmol/kg/day

Same assay, conditions: TargetSites_Mouse_Female: no positive results

Row | SMILES | Potency
94 | CCCCCC(N)=O | 16.9 mmol/kg/day
95 | OC(c1ccc(Cl)cc1)(c1ccc(Cl)cc1)C(Cl)(Cl)Cl | 0.0888 mmol/kg/day
96 | Cc1cc(-c2ccc(N)c(C)c2)ccc1N | 0.1 mmol/kg/day
97 | CC/C(C)=N/O | 6.13 mmol/kg/day
98 | Nc1ccc(Cl)cc1 | 0.546 mmol/kg/day
99 | O=[N+]([O-])c1c(Cl)c(Cl)c(Cl)c(Cl)c1Cl | 0.241 mmol/kg/day

Same assay, conditions: TargetSites_Mouse_Female: small intestine

Row | SMILES | Potency
100 | OO | 222 mmol/kg/day

Same assay, conditions: TargetSites_Mouse_Female: stomach

Row | SMILES | Potency
101 | CC(=O)Nc1nnc(-c2ccc([N+](=O)[O-])o2)s1 | 0.0265 mmol/kg/day
